Test results published in patent US9518018B2, “3-alkoxy, thioalkyl and amino-4-amino-6-(substituted)picolinates and their use as herbicides” (Dow AgroSciences LLC, priority 2011, dated 2016).

What was measured:
Assay in all cases: Pre-emergent Test I herbicidal activity
Assay type in all cases: in vivo
Details in all cases: Table 5, 140 g ai/ha
[1] = tested on: CHEAL: lambsquarters (Chenopodium album)
Text: (§1) Seeds of the desired test plant species were planted in a soil matrix prepared by mixing a loam soil (43 percent silt, 19 percent clay, and 38 percent sand, with a pH of about 8.1 and an organic matter content of about 1.5 percent) and sand in a 70 to 30 ratio. The soil matrix was contained in plastic pots with a surface area of 113 square centimeters. When required to ensure good germination and healthy plants, a fungicide treatment and/or other chemical or physical treatment was applied.
(§2) A weighed amount, determined by the highest rate to be tested, of each test compound was placed in a 25 mL glass vial and was dissolved in 6 mL of a 97:3 v/v (volume/volume) mixture of acetone and DMSO to obtain concentrated stock solutions. […] The stock solutions obtained were diluted with 18 mL of a 0.1% v/v aqueous solution of Tween® 20 surfactant to obtain spray solutions containing the highest application rate. Additional application rates were obtained by serial dilution of 12 mL of the high rate solution into a solution containing 3 mL of 97:3 v/v mixture of acetone and DMSO and 9 mL of the 0.1% v/v aqueous solution of Tween® 20 surfactant to obtain ½×, ¼×, ⅛× and 1/16× rates of the high rate. Compound requirements are based upon a 12 mL application volume at a rate of 187 L/ha. Formulated compounds were applied to the plant material with an overhead Mandel track sprayer equipped with 8002E nozzles calibrated to deliver 187 L/ha over an application area of 0.503 square meters at a spray height of 18 inches ([…]) above the soil surface. Control plants were sprayed in the same manner with the solvent blank.
(§3) The treated pots and control pots were placed in a greenhouse maintained with an approximate 15 hour photoperiod and temperatures of about 23-29° C. during the day and 22-28° C. during the night. Nutrients and water were added on a regular basis and supplemental lighting was provided with overhead metal halide 1000-Watt lamps as necessary. The water was added by top-irrigation. After 20-22 days, the condition of the test plants that germinated and grew as compared with that of the untreated plants that emerged and grew was determined visually and scored on a scale of 0 to 100 percent where 0 corresponds to no injury and 100 corresponds to complete kill or no emergence.

[2] = tested on: EPHHL: poinsettia, wild (Euphorbia heterophylla)
Text: as §1, §2, §3

ZEAMX: corn (Zea mays) = tested on: ZEAMX: corn (Zea mays)
Text: as §1, §2, §3

For `COc1c(N)cc(-c2ccc(Cl)cc2)nc1C(=O)O` [Compound 46], the “Visual Growth Reduction (%)-21 Days after Application CHEAL” value [1] was 95%, the “Visual Growth Reduction (%)-21 Days after Application EPHHL” value [2] was 100% and the “Visual Growth Reduction (%)-21 Days after Application ZEAMX” value (ZEAMX: corn (Zea mays)) was 0%.
